Series [1] has as its target T1, DPP-4 (Homo sapiens, UniProt P27487).
T1 construct: purchased Cayman Chemicals, Ann Arbor, MI, USA
In words: DPP-4 Inhibitor Screening Assay (fluorescence-based, Gly-Pro-AMC substrate). The format is biochemical. To be noted: mean ± SD; for inhibition at 100 µM: compound at 100 µM, triplicate; for IC50: five concentrations 10^−1 to 10^−5 µM, read-out: IC50 for DPP-4 inhibition. The procedure:
This assay kit allows DPP-4 measurement using Gly-Pro-Aminomethylcoumarin (AMC) as a fluorogenic substrate. The free AMC group is released through the cleavage of the peptide bond by DPP leading to fluorescence that can be examined using appropriate excitation and emission wavelengths. Briefly, the experiment was performed triplicate in a white flat bottom 96 well plate. Thirty microlitres of assay buffer, 10 µL of DPP-4 enzyme, 10 µL of dimethyl sulfoxide (DMSO), and 50 µL of DPP substrate were added to 100% initial activity wells. Forty microlitres of assay buffer, 10 µL of DMSO, and 50 µL of DPP substrate were added to background wells. Thirty microlitres of assay buffer, 10 µL of DPP-4 enzyme, 10 µL of sample, and 50 µL of DPP substrate were added to inhibitor wells. […] The plate was incubated for 30 min at 37 °C, and fluorescence measurements were analyzed using an excitation wavelength of 360/40 nm and an emission wavelength of 460/40 nm in a multi-mode plate reader (Synergy HTX S1LFA, BioTek Instruments, Winooski, VT, USA). All assays were performed in triplicate. The fluorescence of the background wells was subtracted from all other wells before the calculations. The per cent inhibition was determined by the following formula in equation 1:Inhibition% = [(Initial activity − Inhibitor)/Initial Activity] × 100(1)

Series [2] is described as follows: MTT cytotoxicity assay on NIH/3T3 cells. The format is cell-based. To be noted: mouse, NIH/3T3 mouse embryonic fibroblast cells, 24 h incubation, 31.25-500 µM, read-out: IC50 cytotoxicity towards NIH/3T3 cell line. Here is the method: NIH/3T3 mouse embryonic fibroblast (normal) cells (ATCC® CRL-1658™) were grown in RPMI 1640 medium (Sigma-Aldrich, St. Louis, MO, USA) supplemented with 2 mM L-glutamine (Gibco, Paisley, UK), 10% fetal bovine serum (Gibco, Paisley, UK) and 1% penicillin/streptomycin (Gibco, Paisley, UK) at 37 °C in a humidified incubator with a 5% CO2 atmosphere. Compounds 2a–o were dissolved in DMSO (Sigma-Aldrich, St. Louis, MO, USA) and diluted to required concentrations with a fresh medium. The control group (solvent control) was prepared with a medium containing 0.1% DMSO. […]
In order to determine IC50 concentrations of compounds 2a–o, cell viability was determined by MTT assay. […] The absorbance values were measured at 540 nm using a Cytation 3 Cell Imaging Multi-Mode Reader (BioTek, Winooski, VT, USA). Cell survival rates were expressed as the percentage of the DMSO (0.1%) solvent control and IC50 concentrations were calculated according to the analysis result.

Each structure is given as a SMILES string. Where only a bound is given, the exact number is not on record here.

T1 sequence (P27487 whole entry): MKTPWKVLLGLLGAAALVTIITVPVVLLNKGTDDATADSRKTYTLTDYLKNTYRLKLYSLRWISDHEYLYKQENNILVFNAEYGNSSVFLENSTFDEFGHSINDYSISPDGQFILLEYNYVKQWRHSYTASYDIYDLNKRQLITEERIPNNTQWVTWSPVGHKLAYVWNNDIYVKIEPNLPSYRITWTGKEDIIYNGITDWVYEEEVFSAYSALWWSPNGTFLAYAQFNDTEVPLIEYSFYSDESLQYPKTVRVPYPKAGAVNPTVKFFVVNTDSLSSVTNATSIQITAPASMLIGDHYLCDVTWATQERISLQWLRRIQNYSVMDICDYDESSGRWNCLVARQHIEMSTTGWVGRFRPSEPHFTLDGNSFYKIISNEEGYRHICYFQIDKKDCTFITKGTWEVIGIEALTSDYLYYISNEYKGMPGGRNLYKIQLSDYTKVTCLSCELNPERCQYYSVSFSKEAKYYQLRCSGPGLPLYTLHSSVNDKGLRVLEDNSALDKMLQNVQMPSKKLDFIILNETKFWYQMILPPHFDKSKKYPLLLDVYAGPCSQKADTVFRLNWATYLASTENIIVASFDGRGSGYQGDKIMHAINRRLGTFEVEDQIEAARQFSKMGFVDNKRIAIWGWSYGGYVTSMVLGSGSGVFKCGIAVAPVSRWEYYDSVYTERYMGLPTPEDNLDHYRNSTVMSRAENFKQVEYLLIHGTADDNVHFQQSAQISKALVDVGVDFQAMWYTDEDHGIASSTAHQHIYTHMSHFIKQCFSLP

By inhibition is commonly meant the relative decrease from the control value, in per cent. On to `S=C(N/N=C/c1ccccc1)Nc1ccc(-n2cccn2)cc1` [Compound 2a, [4-(1H-Pyrazol-1-yl)phenyl]-1-(benzylidene)thiosemicarbazide], for which the inhibition at 100 µM in series [1] was 20.7 ± 1.82%. Same read-out and setting: under `O=[N+]([O-])c1ccc(/C=N/NC(=S)Nc2ccc(-n3cccn3)cc2)cc1` [Compound 2b, [4-(1H-Pyrazol-1-yl)phenyl]-1-(4-nitrobenzylidene)thiosemicarbazide] stands 35.5 ± 1.75%. Consider `N#Cc1ccc(/C=N/NC(=S)Nc2ccc(-n3cccn3)cc2)cc1` [Compound 2c, [4-(1H-Pyrazol-1-yl)phenyl]-1-(4-cyanobenzylidene)thiosemicarbazide], for which the inhibition at 100 µM in series [1] was found to be 28 ± 1.63%. With `Fc1ccc(/C=N/NC(=S)Nc2ccc(-n3cccn3)cc2)cc1` [Compound 2d, [4-(1H-Pyrazol-1-yl)phenyl]-1-(4-fluorobenzylidene)thiosemicarbazide], the inhibition at 100 µM in series [1] came out at 27.3 ± 2.03%.

For `S=C(N/N=C/c1ccc(Cl)cc1)Nc1ccc(-n2cccn2)cc1` [Compound 2e, [4-(1H-Pyrazol-1-yl)phenyl]-1-(4-chlorobenzylidene)thiosemicarbazide], the inhibition at 100 µM in series [1] was found to be 38.4 ± 2.14%. On to `S=C(NN=Cc1ccc(Br)cc1)Nc1ccc(-n2cccn2)cc1` [Compound 2f, 4-[4-(1H-pyrazol-1-yl)phenyl]-1-(4-bromobenzylidene)thiosemicarbazide], for which the IC50 in series [1] was 1.27 ± 0.264 nM. Moreover, in series [2], the IC50 at 24 h was greater than 500000 nM. As for `FC(F)(F)c1ccc(/C=N/NC(=S)Nc2ccc(-n3cccn3)cc2)cc1` [Compound 2g, [4-(1H-Pyrazol-1-yl)phenyl]-1-(4-trifluoromethylbenzylidene)thiosemicarbazide], in series [1], the inhibition at 100 µM is greater than 60% and the IC50 is 4.78 ± 0.296 nM. Regarding `Cc1ccc(/C=N/NC(=S)Nc2ccc(-n3cccn3)cc2)cc1` [Compound 2h, [4-(1H-Pyrazol-1-yl)phenyl]-1-(4-methylbenzylidene)thiosemicarbazide], the inhibition at 100 µM in series [1] was determined as 53.2 ± 3.1%. In the case of `COc1ccc(/C=N/NC(=S)Nc2ccc(-n3cccn3)cc2)cc1` [Compound 2i, [4-(1H-Pyrazol-1-yl)phenyl]-1-(4-methoxybenzylidene)thiosemicarbazide], in series [1], the inhibition at 100 µM was greater than 60% and the IC50 stood at 43.31 ± 0.372 nM. On to `CS(=O)(=O)c1ccc(/C=N/NC(=S)Nc2ccc(-n3cccn3)cc2)cc1` [Compound 2j, [4-(1H-Pyrazol-1-yl)phenyl]-1-(4-methylsulfonylbenzylidene)thiosemicarbazide], for which the inhibition at 100 µM in series [1] is 59.8 ± 1.13%.

For the molecule `CSc1ccc(/C=N/NC(=S)Nc2ccc(-n3cccn3)cc2)cc1` [Compound 2k, [4-(1H-Pyrazol-1-yl)phenyl]-1-(4-methylthiobenzylidene)thiosemicarbazide], in series [1], the inhibition at 100 µM is greater than 60% and the IC50 was 22.7 ± 0.301 nM. Take `CN(C)c1ccc(/C=N/NC(=S)Nc2ccc(-n3cccn3)cc2)cc1` [Compound 2l, [4-(1H-Pyrazol-1-yl)phenyl]-1-(4-dimethylaminobenzylidene)thiosemicarbazide]: the inhibition at 100 µM in series [1] was determined as 57.3 ± 1.04%. Still for that read-out and setting: under `CC(C)c1ccc(/C=N/NC(=S)Nc2ccc(-n3cccn3)cc2)cc1` [Compound 2m, [4-(1H-Pyrazol-1-yl)phenyl]-1-(4-isopropylbenzylidene)thiosemicarbazide] stands 47.4 ± 1.29%. The same measure, in the same setting: as for `CC(C)(C)c1ccc(/C=N/NC(=S)Nc2ccc(-n3cccn3)cc2)cc1` [Compound 2n, [4-(1H-Pyrazol-1-yl)phenyl]-1-(4-tert-butylbenzylidene)thiosemicarbazide], the figure is 28.6 ± 1.76%. With `S=C(N/N=C/c1ccc(-c2ccccc2)cc1)Nc1ccc(-n2cccn2)cc1` [Compound 2o, [4-(1H-Pyrazol-1-yl)phenyl]-1-(4-phenylbenzylidene)thiosemicarbazide], in series [1], the inhibition at 100 µM is greater than 60% and the IC50 was 18.1 ± 0.311 nM.

Values taken from PMC7662656, “Pyrazole Incorporated New Thiosemicarbazones: Design, Synthesis and Investigation of DPP-4 Inhibitory Effects” (Molecules, 2020).
